Measurements from patent US12357601B2, “Composition for inhibiting growth of bacterium having menaquinone synthesis pathway through futalosine or futalosine derivative” (NOSTER INC., priority 2017, dated 2025).
≈ marks a conversion by molar mass, not a printed value.

How the values were obtained:
[1] = system: Helicobacter suis TKY strain; assay: Gastric MALT lymphoma model: number of Helicobacter suis bacteria in the stomach 6 months after infection; assay type: in vivo, C57BL/6 female mouse; conditions: 200 μM in water
Description: Helicobacter suis is suspected to be the cause of the onset of gastric MALT lymphoma. A 5-week-old C57BL/6 female mouse was orally infected only once with a stomach suspension of Helicobacter suis TKY strain-infected mouse and dissected 6 months after the infection, and the number of bacteria in the gastric mucosa was counted according to the method described in Example 5. Water added with HYA (200 μM) was given to the mouse from one week before the infection.
The measurement of the number of Helicobacter suis bacteria in the stomach of the infected mouse was performed in the same manner as in Example 5. The relative value of the number of bacteria in gastric mucosa when that with HYA non-administration is 1 is shown (FIG. 5-1 A, Item 1: HYA non-administration group, Item 2: HYA administration group).

[2] = system: Helicobacter pylori TK1029 strain; assay: Proliferation inhibitory effect (in vitro) by ED50 measurement, viable count; assay type: cell-based
Description: Helicobacter pylori TK1029 strain (clinical isolate) was cultured in Brucella broth containing 10% FCS and 1×10^6 CFU of bacteria were respectively added to 3 mL of Brain-Heart Infusion Broth (BHI) media (previously added with free fatty acid (stearic acid, oleic acid, linoleic acid, ricinoleic acid, HYA) at 0, 0.5, 5, 50, 500 μg/mL) containing 2% FCS in a 6-well plate. Shaking culture was performed under conditions of temperature 37° C., humidity 100%, microaerobic (5% 02, 10% CO2, 85% N2), the culture medium (0.1 mL) from each well was applied to NISSUI plate, Helicobacter agar medium 15 hr and 25 hr later, and the number of colonies formed after microaerobic culture for 3 days was counted.

[3] = system: Helicobacter pylori SS1 strain, TN2GF4 strain, ATCC43579 strain, NCTC11637 strain, TY281 strain, TY1345 strain; assay: Proliferation inhibitory effect (in vitro), static culture 3 days, colony count; assay type: cell-based; conditions: fatty acid 200 μM or 1000 μM, 3 days; six strains; compared with linoleic acid
Description: Helicobacter pylori SS1 strain, TN2GF4 strain, ATCC43579 strain, NCTC11637 strain, TY281 strain, TY1345 strain were each inoculated to a 6-well plate containing 3 mL of a liquid medium (Brucella broth added with 10% FCS), and fatty acid (200 μM or 1000 μM) and menaquinone (MK-4) 100 μg/mL were added. After static culture for 3 days at temperature 37° C., microaerobic conditions (5% 02, 10% 002, 85% N2), the culture medium was applied on a Helicobacter agar plate, cultured for 3 days and the resulting colonies were counted (FIG. 1-1 A: SS1 strain, FIG. 1-2 B: TN2GF4 strain, FIG. 1-3 C: ATCC43579 strain, FIG. 1-4 D: NCTC11637 strain, FIG. 1-5 E: TY281 strain, FIG. 1-6 F: TY1345 strain. Item C: control (no addition), Item 1: HYA addition, Item 2: HYA and menaquinone addition, Item 3: linoleic acid addition, Item 4: linoleic acid and menaquinone addition).

[4] = system: Helicobacter pylori SS1 strain or TN2GF4 strain; assay: Inhibitory effect (in vivo) of fatty acid, number of bacteria in gastric mucosa of infected mice; design: species or system C57BL/6 female mouse
Description: A 5-week-old C57BL/6 female mouse was orally infected 3 times with Helicobacter pylori SS1 strain or TN2GF4 strain (1-5×10^8 CFU) every other day and dissected at 2 weeks from the final infection day, and the number of bacteria in the gastric mucosa was counted. The measurement and the number of bacteria in the gastric mucosa was performed as follows. First, the greater curvature of the stomach of the mouse was incised with scissors for ophthalmology, and the contents were washed away with phosphate buffered saline (pH 7.4, PBS). Next, the mucous membrane was scraped with a slide glass, 1 mL of PBS was added, the mixture was sandwiched between ground glass parts of two glass slides and evenly crushed to prepare a gastric mucosa suspension. The culture medium was applied on a Helicobacter agar plate, cultured for 3 days and the resulting colonies were counted. Water added with fatty acid (200 μM) (HYA, HYB, KetoA, KetoC, linoleic acid, oleic acid, DHA, EPA) was given to the mice from 1 week before infection. The control was free of fatty acid addition (FIG. 3-1 A: infected with SS1 strain, FIG. 3-2 B: infected with TN2GF4 strain).

[5] = system: Helicobacter suis TKY strain or SNTW101 strain; assay: Proliferation inhibitory effect (in vivo) of HYA on Helicobacter suis, real-time PCR quantification, 2 weeks after infection; design: species or system C57BL/6 female mouse; conditions: 200 μM in water from one week before infection; 2 weeks later
Description: A 5-week-old C57BL/6 female mouse was orally infected 3 times with Helicobacter pylori SS1 strain or TN2GF4 strain (1-5×10^8 CFU) every other day and dissected at 2 weeks from the final infection day, and the number of bacteria in the gastric mucosa was counted. Water added with HYA or linoleic acid (200 μM) was given to the mice from 1 week before infection (FIG. 4-1 A: SS1 strain, FIG. 4-2 B: TN2GF4 strain). A 5-week-old C57BL/6 female mouse was orally infected only once with a stomach suspension of Helicobacter suis TKY strain or SNTW101 strain-infected mouse and dissected 2 weeks later, and the number of bacteria in the gastric mucosa was counted. Water added with HYA (200 μM) was given to the mouse from one week before the infection (FIG. 4-3 C). […]
DNA was prepared from a part of the stomach tissue by using DNeasy Blood & Tissue Kit (Qiagen) and real-time PCR (model: CFX96 (Bio-Rad)) was performed. As the primer for Helicobacter suis quantification, the following was used by reference to Diagn. […]
The following were used as the primers for β-actin quantification of the mouse by reference to J. Clin. Microbiol. […]
For quantification by real-time PCR, iQ™ SYBR Green Supermix was used. […]
Thereafter, the temperature was increased by 0.5° C. every seconds from 65° C. to 95° C. and the fluorescence was measured. […]

CCCCC/C=C\CC(O)CCCCCCCCC(=O)O (stereo not drawn) [HYA, 10-hydroxy-cis-12-octadecenoic acid]
number of Helicobacter suis bacteria in gastric mucosa, compared to the non-administration group [1]: significantly suppressed
ED50 value times lower than that of ricinoleic acid ([2]; 15 hr after culturing): about 10 times
ED50 value, 15 hr later ([2]; 15 hr shaking culture, BHI 2% FCS, viable count): 0.5 µg/mL (≈ 1.68 µM)
ED50 values compared with the other fatty acids ([2]; 25 hr after culturing): remarkably lower than or the same level as
ED50 value, 25 hr later ([2]; 25 hr shaking culture, BHI 2% FCS, viable count): 0.5 µg/mL (≈ 1.68 µM)
proliferation of Helicobacter pylori (colony count) [3]: suppressed proliferation
number of Helicobacter pylori in the gastric mucosa, compared to the control ([4]; 200 μM in water from 1 week before infection, 2 weeks from final infection, both SS1 and TN2GF4 strain): significantly suppressed
suppressive action compared to HYB, KetoA, KetoC, linoleic acid, oleic acid, DHA and EPA ([4]; 200 μM in water, SS1 and TN2GF4 strain infected mice): strong suppressive action
proliferation of Helicobacter suis TKY strain, SNTW101 strain (number of bacteria in gastric mucosa) [5]: inhibited proliferation
